Data on two compounds can be found in PMC11444200, “In Vitro Evaluation of Antipseudomonal Activity and Safety Profile of Peptidomimetic Furin Inhibitors” (Biomedicines, 2024).

Data set [1] deals with T1, Human serum albumin (HSA) (Homo sapiens, UniProt P02768).
T1 construct: purchased Merck (Darmstadt, Germany) A1653
Particulars: same experimental model, earlier study; cited from earlier work.

In data set [2] the test system is primary human hepatocytes (PHH). Details: method as in PMID 35594709. Particulars: PHHs; cited from earlier work.
Data set [3] concerns the target T2, CYP3A4 (Homo sapiens, UniProt P08684). Also on record: method as in PMID 35594709. Particulars: PHH, previous studies; cited from earlier work.
In data set [4] the test system is human airway Calu-3 cells. Particulars: cited from earlier work.
In data set [5] the test system is primary human hepatocytes (PHH). Kind of data set: Amplex Red extracellular H2O2 assay in primary human hepatocytes. It counts as cell-based. Particulars: 50 µM and 100 µM, 24 h. Here is the method: (§1) PHHs were purchased from Primacyt Cell Culture Technology GmbH (Schwerin, Germany). Hepatocytes were thawed using hepatocyte recovery medium (Primacyt, Schwerin, Germany) and cells were centrifuged (10 min, 100× g, 20 °C) to remove supernatants. Cells were incubated with 5% FBS-containing plating medium for 6 h, then with FBS-free maintenance medium at 37 °C with 5% CO2 (both media were obtained from Primacyt, Schwerin, Germany) on Matrigel-coated membrane inserts (Costar Transwell-COL PTFE permeable supports, 6.5 mm inserts, 0.4 µm pore size, 24-well plate, Corning Incorporated, Kennebunk, ME, USA) for the CCK-8 and Amplex Red procedures. Maintenance medium without FBS was replaced every 24 h and the cells were incubated.
To evaluate the cellular responses of IPEC-J2 to the inhibitors MI-1851 and MI-2415, and those of PHHs to MI-2415, at different concentration levels, the Amplex Red hydrogen peroxide assay kit (Invitrogen, Molecular Probes, Budapest, Hungary) in combination with horseradish peroxidase has been used. In the presence of hydrogen peroxide (in 1:1 stoichiometry), Amplex Red produces a red fluorescent oxidation product, resorufin. The IPEC-J2 cells and PHHs were treated for 24 h with the inhibitor(s) at different concentration levels (50 and 100 μM). […]

Data set [6] has the same test system. Nature of the data set: CCK-8 cytotoxicity assay in primary human hepatocytes. It counts as cell-based. Particulars: 50 µM and 100 µM, 24 h. Here is the method: as §1
The possible cytotoxic effects of the inhibitors MI-1851 and MI-2415 (structures provided in Figure 1) in different concentrations on IPEC-J2 and those of inhibitor MI-2415 on PHHs were assessed for 24 h by performing the CCK-8 assay (Dojindo Molecular Technologies, Rockville, MD, USA). […] Following three times washing of the wells with PBS, 10 µL CCK-8 reagent mixed with 100 µL fresh Williams’ Medium E was added and the absorbance values were measured at 450 nm using the SpectraMax iD3 microplate reader (Molecular Devices, San José, CA, USA) after 2 h incubation. […]
For orientation: Tetrazolium assays rely on reduction of a dye to a coloured formazan, in cell work by metabolically active cells.

For data set [7] the test system is unchanged. Nature of the data set: DCFH-DA intracellular ROS assay in primary human hepatocytes. It is filed as cell-based. Particulars: 50 µM and 100 µM, 24 h. The protocol:
as §1
The ability of inhibitors MI-1851 and MI-2415 to induce oxidative stress (ROS) within IPEC-J2 as well as of compound MI-2415 within PHHs was investigated with 2,7-dichloro-dihydro-fluorescein diacetate (DCFH2-DA). DCFH2-DA is a non-fluorescent compound that can passively diffuse across cell membranes due to its lipophilic nature. […] A Victor X2 2030 (Perkin Elmer, Waltham, MA, USA) was used to determine the fluorescence values of the samples (excitation wavelength: 485 nm, emission wavelength: 535 nm), which are directly proportional to the ROS generation.

The target in data set [8] is T2, CYP3A4. Nature of the data set: cell-based P450-Glo CYP3A4 activity assay in PHHs. It is filed as in vitro ADME. Details: human hepatic microsomes (Gibco, Biocenter, Szeged, Hungary); tissue Gibco (Biocenter, Szeged, Hungary); host or cells: human liver microsomes. Particulars: 100 µM, 24 h. Here is the method:
To investigate the effects of inhibitor MI-2415 on CYP3A4 activities, a P450-Glo CYP450 assay (Promega, Madison, WI, USA) was used. […] This luminescent method involves adding a cell-permeable Luciferin-IPA at 3 µM, which was used in 300 µL phenol-red free Williams’ Medium E in each well in the CYP3A4 assay with an incubation time of 1 h. The luminescence activity of the product in the presence of the luciferin detection reagent was proportional to the CYP activity. For the microsomal CYP3A4 assay of inhibitors MI-1851 and MI-2415 at 25, 50, and 100 µM (n = 3), BioVision CYP assays (BioVision, Inc., Kampenhout, Belgium) were used according to the manufacturer’s instructions. The protein content of human hepatic microsomes (Gibco, Biocenter, Szeged, Hungary) was determined by the bicinchoninic acid protein assay kit (Pierce BCA kit, Thermo Fisher Scientific, Waltham, MA, USA) and a 100 µg/well protein was used in each study. […] A Victor X2 2030 fluorescence spectrometer (Perkin Elmer, Waltham, MA, USA) was used to detect the fluorescence intensities of the microsomal CYP3A4 function at wavelengths of λex/em = 535/587 nm and it was also applied to detect the luminescence signals of the cell-based CYP3A4 activity assay.

T2 sequence (P08684 whole entry): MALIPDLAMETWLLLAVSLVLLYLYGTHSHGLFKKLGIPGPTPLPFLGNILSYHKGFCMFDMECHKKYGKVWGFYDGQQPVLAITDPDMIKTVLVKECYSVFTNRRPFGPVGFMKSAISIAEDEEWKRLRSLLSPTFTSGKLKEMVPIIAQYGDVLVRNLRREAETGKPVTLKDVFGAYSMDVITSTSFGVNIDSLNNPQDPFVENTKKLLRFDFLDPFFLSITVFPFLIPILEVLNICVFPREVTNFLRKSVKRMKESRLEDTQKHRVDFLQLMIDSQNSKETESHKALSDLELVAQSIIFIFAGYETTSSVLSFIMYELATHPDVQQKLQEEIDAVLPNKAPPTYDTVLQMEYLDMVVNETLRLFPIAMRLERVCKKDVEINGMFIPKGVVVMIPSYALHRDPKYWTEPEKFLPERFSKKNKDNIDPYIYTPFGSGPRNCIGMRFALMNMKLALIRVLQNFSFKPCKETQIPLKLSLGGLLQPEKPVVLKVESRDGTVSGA
T1 sequence (P02768 25-609): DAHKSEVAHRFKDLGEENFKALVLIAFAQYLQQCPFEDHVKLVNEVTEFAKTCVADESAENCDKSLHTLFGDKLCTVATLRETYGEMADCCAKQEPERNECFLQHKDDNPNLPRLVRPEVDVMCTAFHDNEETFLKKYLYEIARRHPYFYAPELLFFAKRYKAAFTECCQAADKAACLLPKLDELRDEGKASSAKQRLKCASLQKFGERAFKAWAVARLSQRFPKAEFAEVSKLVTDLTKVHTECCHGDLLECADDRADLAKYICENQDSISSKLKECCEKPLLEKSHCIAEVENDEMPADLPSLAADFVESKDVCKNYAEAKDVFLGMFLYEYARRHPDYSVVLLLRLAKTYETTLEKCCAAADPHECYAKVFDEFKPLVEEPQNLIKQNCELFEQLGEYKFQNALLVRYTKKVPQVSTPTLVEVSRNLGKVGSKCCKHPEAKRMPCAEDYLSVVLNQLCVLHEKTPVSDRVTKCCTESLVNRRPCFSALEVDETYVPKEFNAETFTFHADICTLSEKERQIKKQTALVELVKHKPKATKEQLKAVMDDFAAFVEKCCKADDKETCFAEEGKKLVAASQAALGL

Consider `CC(C)(C)[C@H](NC(=O)[C@H](CCONC(=N)N)NC(=O)Cc1ccc(CNC(=N)N)cc1)C(=O)N[C@@H](CCONC(=N)N)C(=O)NCc1ccc(C(=N)N)cc1` [MI-1851], for which, in data set [1], the “effect on emission signal of HSA” value was “did not affect the emission signal of HSA”. The non-cytotoxic concentration result in data set [2] is recorded as “up to 100 µM”; in data set [4], “up to 50 µM”. Also, the “concentration at which significant inhibition of CYP3A4 was already observed” value at CYP3A4 [3] is 20 µM.
Regarding `CC(C)(C)[C@H](NC(=O)[C@H](CCONC(=N)N)NC(=O)Cc1ccc(CNC(=N)N)cc1)C(=O)N[C@@H](CCONC(=N)N)C(=O)NCc1ccc2c(c1)CN=C2N` [MI-2415], the “extracellular H2O2 production in PHHs” value in data set [5] is “did not cause a redox imbalance”. Also, the “cell death in PHHs” value in data set [6] is recorded as “did not lead to significant cell death”. Further, in data set [7], the “intracellular ROS formation in PHHs” value was “did not cause a redox imbalance”. The “CYP3A4 activity in PHHs” value on CYP3A4 [8] is listed as “significantly reduced”.
